# Data published in US20020173538A1, “Method for sensitizing cancer cells to cancer therapies with a mevalonate-reducing compound” (priority 2000, published 2002).
# Where two headings read alike, the source gives them in different places.
# Assays:
# Hep G2 cells = test: MTT cell viability assay, Hep G2 cells (serum-free DMEM); conditions: for IC50: Homo sapiens; for Cell viability (cell number): LOV 50 μM 48 hr
# Excerpt: (§1) Human hepatoma cell lines Hep G2 and Hep 3 were chosen as the in vitro models of hepatocytes and hepatoma, respectively.
# [1] = as above; conditions: human, Hep G2 cells, Cell viability
# Excerpt: as §1
# Hep 3B/T2 cells = test: Tumor growth of Hep 3B/T2 cells in nude mice; assay type: in vivo, BALB/c-nu/nu nude mice
smiles,measurement,setting,value
"CC[C@H](C)C(=O)O[C@H]1C[C@@H](C)C=C2C=C[C@H](C)[C@H](CC[C@@H]3C[C@@H](O)CC(=O)O3)[C@H]21 [Lovastatin, lovastatin]",IC50,"Hep G2 cells; HepG2, 96 h, read-out: IC50 (cell viability), 96 hr",13.1 µM
same,IC50,"Hep G2 cells; HepG2, 120 h, read-out: IC50 (cell viability), 120 hr",6.2 µM
same,Cell viability (cell number),Hep G2 cells; then LOV 50 μM without MVA another 24 hr,10.6 ± 0.7^b 1 × 10^3 cells
same,Cell viability (cell number),Hep G2 cells; then LOV 50 μM without MVA another 48 hr,3.6 ± 1.6^b 1 × 10^3 cells
same,Cell viability (cell number),Hep G2 cells; then LOV 50 μM without MVA another 72 hr,1.7 ± 0.5^b 1 × 10^3 cells
same,"viability at 48 h, 1 μM","[1]; LOV 1 μM, 48 hr",91.8 ± 2.1%
same,"viability at 72 h, 1 μM","[1]; LOV 1 μM, 72 hr",88.7 ± 1.3%
same,"viability at 48 h, 2 μM","[1]; LOV 2 μM, 48 hr",90.7 ± 1.5%
same,"viability at 72 h, 2 μM","[1]; LOV 2 μM, 72 hr",86.2 ± 1.9%
same,"viability at 48 h, 5 μM","[1]; LOV 5 μM, 48 hr",87.2 ± 3.1%
same,"viability at 48 h, 5 μM","[1]; LOV 5 μM, 48 hr, Table 4",87.2 ± 3.1%
same,"viability at 72 h, 5 μM","[1]; LOV 5 μM, 72 hr",80.9 ± 4.4%
same,"viability at 72 h, 5 μM","[1]; LOV 5 μM, 72 hr, Table 4",80.9 ± 4.4%
same,"viability at 96 h, 5 μM","[1]; LOV 5 μM, 96 hr",63.2 ± 2%
same,"viability at 120 h, 5 µM","[1]; LOV 5 μM, 120 hr",55.1 ± 5%
same,"viability at 48 h, 10 μM","[1]; LOV 10 μM, 48 hr",85.8 ± 2.7%
same,"viability at 48 h, 10 μM","[1]; LOV 10 μM, 48 hr, Table 4",85.8 ± 2.7%
same,"viability at 72 h, 10 μM","[1]; LOV 10 μM, 72 hr",78.7 ± 5.3%
same,"viability at 72 h, 10 μM","[1]; LOV 10 μM, 72 hr, Table 4",78.7 ± 5.3%
same,"viability at 96 h, 10 μM","[1]; LOV 10 μM, 96 hr",55.1 ± 5%
same,"viability at 120 h, 10 µM","[1]; LOV 10 μM, 120 hr",33.8 ± 3.8%
same,"viability at 48 h, 20 μM","[1]; LOV 20 μM, 48 hr",79.9 ± 2.7%
same,"viability at 72 h, 20 μM","[1]; LOV 20 μM, 72 hr",75.3 ± 4.2%
same,"viability at 72 h, 50 μM","[1]; LOV 50 μM 48 hr, then LOV 50 μM without MVA another 24 hr",57.8 ± 6.2%
same,"viability at 96 h, 50 µM","[1]; LOV 50 μM 48 hr, then LOV 50 μM without MVA another 48 hr",12.7 ± 2.6%
same,"viability at 120 h, 50 µM","[1]; LOV 50 μM 48 hr, then LOV 50 μM without MVA another 72 hr",4 ± 0.6%
same,"viability at 48 h, 50 μM","[1]; LOV 50 μM, 48 hr",73.1 ± 3.2%
same,"viability at 72 h, 50 μM","[1]; LOV 50 μM, 72 hr",58.2 ± 4.2%
same,"viability at 72 h, 1 μM","[1]; lovastatin 1 μM, 72 hr",88.7 ± 1.3%
same,"viability at 72 h, 2 μM","[1]; lovastatin 2 μM, 72 hr",86.2 ± 1.9%
same,"viability at 48 h, 5 μM","[1]; lovastatin 5 μM 48 hr, then no CAPE 48 hr",75.2 ± 1.6%
same,"viability at 48 h, 5 μM","[1]; lovastatin 5 μM 48 hr, then no taxol 48 hr",85.8 ± 4.5%
same,"viability at 72 h, 5 μM","[1]; lovastatin 5 μM 72 hr, then no taxol 48 hr",81.3 ± 3.8%
same,"viability at 72 h, 5 μM","[1]; lovastatin 5 μM 72 hr, then no taxol 72 hr",67.2 ± 0.5%
same,"viability at 72 h, 5 μM","[1]; lovastatin 5 μM alone, 72 hr, Table 23",66.8 ± 1.5%
same,"viability at 72 h, 5 μM","[1]; lovastatin 5 μM, 72 hr",80.9 ± 4.4%
same,"viability at 48 h, 10 μM","[1]; lovastatin 10 μM 48 hr, then no CAO 48 hr",75 ± 3.3%
same,"viability at 48 h, 10 μM","[1]; lovastatin 10 μM 48 hr, then no CAPE 48 hr",66.7 ± 2.4%
same,viability at 10 µM,"[1]; lovastatin 10 μM 48 hr, then no GL-M1 48 hr",76.9 ± 2.6%
same,"viability at 48 h, 10 μM","[1]; lovastatin 10 μM 48 hr, then no taxol 48 hr",69.1 ± 3.1%
same,"viability at 72 h, 10 μM","[1]; lovastatin 10 μM 72 hr, then no taxol 48 hr",54.7 ± 5.9%
same,"viability at 72 hr, 10 μM","[1]; lovastatin 10 μM 72 hr, then no taxol 72 hr",48 ± 2.9%
same,"viability at 72 h, 10 μM","[1]; lovastatin 10 μM alone, 72 hr, Table 23",57.8 ± 11.2%
same,"viability at 96 h, 10 μM","[1]; lovastatin 10 μM alone, 96 hr, Table 10",51.9 ± 4.4%
same,"viability at 96 h, 10 μM","[1]; lovastatin 10 μM alone, 96 hr, Table 21",52.4 ± 5.5%
same,"viability at 96 h, 10 μM","[1]; lovastatin 10 μM alone, 96 hr, Table 25",50.3 ± 4.9%
same,"viability at 72 h, 10 μM","[1]; lovastatin 10 μM, 72 hr",78.7 ± 5.3%
same,"viability at 72 h, 20 μM","[1]; lovastatin 20 μM, 72 hr",75.3 ± 4.2%
same,"viability at 48 h, 50 μM","[1]; lovastatin 50 μM 48 hr, then no taxol 48 hr",14.6 ± 1.3%
same,"viability at 72 h, 50 μM","[1]; lovastatin 50 μM, 72 hr",58.2 ± 4.2%
same,percentage of inhibition of tumor size,"Hep 3B/T2 cells; Cycle 1 (Day 42), LOV 37.5 mg/kg/day p.o. days 28-34 and 49-55 and/or taxol 120 μg/kg/2 day i.p. day 36, 38, 40, 57, 59, 61",(−43.6%
same,Tumor size,"Hep 3B/T2 cells; Day 8, LOV 75 mg/kg/day p.o. days 8-14 and/or taxol 120 μg/kg/day i.p. days 15-19, n = 3",0.111 cm^3
same,Tumor size,"Hep 3B/T2 cells; Day 11, LOV 75 mg/kg/day p.o. days 8-14 and/or taxol 120 μg/kg/day i.p. days 15-19, n = 3",0.048 cm^3
same,Tumor size,"Hep 3B/T2 cells; Day 17, LOV 75 mg/kg/day p.o. days 8-14 and/or taxol 120 μg/kg/day i.p. days 15-19, n = 3",0.050 cm^3
same,Tumor size,"Hep 3B/T2 cells; Day 26, LOV 75 mg/kg/day p.o. days 8-14 and/or taxol 120 μg/kg/day i.p. days 15-19, n = 3",0.121 cm^3
same,Tumor size,"Hep 3B/T2 cells; Day 29, LOV 75 mg/kg/day p.o. days 8-14 and/or taxol 120 μg/kg/day i.p. days 15-19, n = 3",0.154 cm^3
same,Tumor size (1 × w^2 × 0.52 cm^3) Day 35,"Hep 3B/T2 cells; Day 35 after inoculation, p.o. lovastatin 37.5 mg/kg/day (days 28-34, 49-55) and/or i.p. taxol 120 μg/kg/2 day (days 36, 38, 40, 57, 59, 61), mean ± SEM",0.200 cm^3
same,Tumor size (1 × w^2 × 0.52 cm^3) Day 38,"Hep 3B/T2 cells; Day 38 after inoculation, p.o. lovastatin 37.5 mg/kg/day (days 28-34, 49-55) and/or i.p. taxol 120 μg/kg/2 day (days 36, 38, 40, 57, 59, 61), mean ± SEM",0.301 cm^3
same,Tumor size (1 × w^2 × 0.52 cm^3) Day 42,"Hep 3B/T2 cells; Day 42 after inoculation, p.o. lovastatin 37.5 mg/kg/day (days 28-34, 49-55) and/or i.p. taxol 120 μg/kg/2 day (days 36, 38, 40, 57, 59, 61), mean ± SEM",0.533 cm^3
same,Tumor size (1 × w^2 × 0.52 cm^3) Day 49,"Hep 3B/T2 cells; Day 49 after inoculation, p.o. lovastatin 37.5 mg/kg/day (days 28-34, 49-55) and/or i.p. taxol 120 μg/kg/2 day (days 36, 38, 40, 57, 59, 61), mean ± SEM",0.665 cm^3
same,Tumor size (1 × w^2 × 0.52 cm^3) Day 56,"Hep 3B/T2 cells; Day 56 after inoculation, p.o. lovastatin 37.5 mg/kg/day (days 28-34, 49-55) and/or i.p. taxol 120 μg/kg/2 day (days 36, 38, 40, 57, 59, 61), mean ± SEM",0.995 cm^3
same,Tumor size (1 × w^2 × 0.52 cm^3) Day 63,"Hep 3B/T2 cells; Day 63 after inoculation, p.o. lovastatin 37.5 mg/kg/day (days 28-34, 49-55) and/or i.p. taxol 120 μg/kg/2 day (days 36, 38, 40, 57, 59, 61), mean ± SEM",1.263 cm^3
same,Tumor size,"Hep 3B/T2 cells; end of one cycle of treatment, n=6 (FIG. 41)",2.24±2.38 cm^3
